Test results reported in patent publication US20180153826A1, “MATERIALS AND METHODS FOR THE TREATMENT OF CYSTIC FIBROSIS” (UNIVERSITY OF FLORIDA RESEARCH FOUNDATION, INC., priority 2015, published 2018).

What was measured:
[1] = tested on: cAMP-dependent HCO3^− secretion; assay: Cyclic nucleotide (cAMP)-dependent HCO3^− secretion, lumen Cl^−/SCFA-free; design: species or system rat; conditions: luminal; glibenclamide 100 μM, GlyH-101 10 μM, NPPB 100 μM (data not shown)
Procedure: Stripped mucosal sheets were mounted into Ussing chambers (window area=0.3-0.5 cm^2, Physiologic Instruments, San Diego, Calif.). The mucosal side of tissue was bathed with an unbuffered HCO3^--free Cl^- Ringer solution (see Table 2 for detailed composition) circulated by a gas lift with 100% O2 while the serosal side was bathed with buffered Cl^- Ringer solution (pH 7.4) that contained 25 mM HCO3^- and gassed with 5% CO2/95% O2. Each side contained 3-5 ml of solution and the temperature of the solution was adjusted to and maintained at 37° C. by heated water-jacketed reservoirs. Experiments were performed under short-circuit conditions (Voltage-Current Clamp, VCC MC8; Physiologic Instruments, San Diego, Calif.) to maintain the transepithelial potentials at 0 mV, except for brief interruption at 20-second intervals for recording of open-circuit potential (VT, mV). Two types of approaches were used in the measurement of colonic HCO3^- secretion, namely, measurement of lumen pH or pH stat titration of net alkalinization by colonic mucosa. […] Radiometer Analytical, Villeurbanne, France). The amount of the acid delivered per unit time per surface area was used to quantitate HCO3^- secretion by the mucosa. Measurements were recorded continuously and mean values for consecutive 5 or 10 min periods were averaged. […] The short-circuit current (Isc) was measured in microamperes (μA) and converted into μEq/hr/cm^2. Tissue resistance (R, Ω cm^2) was calculated from Ohm's law. Colon segments were prepared and treated as in the secretagogue-induced HCO3^- secretion experiments except that they were bathed luminally with HCO3^--free Ringer solution that contained no isobutyrate and no Cl^-. Cyclic nucleotide-dependent HCO3^- secretion was calculated as […] (the difference between JHCO3 after minus JHCO3 before the addition of forskolin). When inhibitor was used, it was added at 30 min before […] or forskolin.

[2] = tested on: distal colonic mucosa; assay: Lumen alkalinization response to [Ca^2+]o (lumen pH, Ussing chamber); design: species or system rat; conditions: for lumen alkalinization rate: mean±SE, n=3
Procedure: Experiments were performed using non-fasting male Sprague-Dawley rats and C57BL/6 mice. Rats weighting 100-400 g were obtained from Charles River Laboratories. Mice lacking CaSR expression in intestinal epithelial cells (CaSR^−/−) and their CaSR^+/+ littermates were bred and maintained. CaSR^−/− mice were generated as previously described. Briefly, CaSR flox/flox mice were bred with transgenic mice expressing Cre Recombinase under the control of the villin 1 promoter and genotyped prior to all experiments after an approximate 10-12 generations. Mice were used at 5-10 weeks of age. Animals were fed and maintained on regular chow (Harlan) with free access to water before sacrifice. Animals were sacrificed with standard CO2 inhalation followed by cervical dislocation. The colons were isolated, cut open along the mesenteric border into a flat sheet, and flushed with ice-cold Ringer solutions. Mucosa from the distal colon were carefully hand-stripped off of serosal, muscular and submucosal layers as described and a pair of adjacent mucosal segments were incised and mounted into Ussing chambers. In some experiments, stripped mucosa was incised longitudinally into two equal pieces in order to facilitate comparisons between control and treatment. Short-circuit current and transepithelial resistance differences between these two adjacent tissues were less than 15%.
(§1) Stripped mucosal sheets were mounted into Ussing chambers (window area=0.3-0.5 cm^2, Physiologic Instruments, San Diego, Calif.). The mucosal side of tissue was bathed with an unbuffered HCO3^−-free Cl^− Ringer solution (see Table 2 for detailed composition) circulated by a gas lift with 100% O2 while the serosal side was bathed with buffered Cl^− Ringer solution (pH 7.4) that contained 25 mM HCO3^− and gassed with 5% CO2/95% O2. Each side contained 3-5 ml of solution and the temperature of the solution was adjusted to and maintained at 37° C. by heated water-jacketed reservoirs. Experiments were performed under short-circuit conditions (Voltage-Current Clamp, VCC MC8; Physiologic Instruments, San Diego, Calif.) to maintain the transepithelial potentials at 0 mV, except for brief interruption at 20-second intervals for recording of open-circuit potential (VT, mV).
(§2) Two types of approaches were used in the measurement of colonic HCO3^− secretion, namely, measurement of lumen pH or pH stat titration of net alkalinization by colonic mucosa. […] The amount of the acid delivered per unit time per surface area was used to quantitate HCO3^− secretion by the mucosa. Measurements were recorded continuously and mean values for consecutive 5 or 10 min periods were averaged. The rate of HCO3^− secretion (JHCO3) is expressed as μEq/hr/cm^2. The short-circuit current (Isc) was measured in microamperes (μA) and converted into μEq/hr/cm^2. Tissue resistance (R, Ω cm^2) was calculated from Ohm's law.
Two equal pieces of mucosa from each colon that were obtained by longitudinal division along the antimessenteric border were mounted into two Ussing chambers. […] After 15 to 30 min, when stabilization was achieved and basal lumen pH recordings performed, HCO3^−-free Ringer solution in the serosal side was replaced by 25 mM HCO3-containing Ringer solution, and changes in lumen pH were monitored and recorded for 15 to 30 min. […]

[3] = tested on: ENaC; assay: ENaC activity as amiloride-sensitive bumetanide-insensitive Isc, weanling distal colon; design: species or system rat; conditions: 2.5% w/w added to diet vs normal 1%; 3 week old rats, distal colon
Procedure: FIG. 17. The inhibitory effect of […] on ENaC was examined electrophysiologically by measuring amiloride-sensitive short-circuit current responses in the presence or absence of […]. Weanling infant distal colonic mucosa, which expresses highest activity of ENaC, is employed and mounted in Ussing chamber. FIGS. 19A-19C. […] Here, the activity of ENaC is measured as amiloride-sensitive bumetanide-insensitive Isc. […] FIGS. 20A-20C. […] The activity of ENaC was measured as amiloride-sensitive bumetanide-insensitive Isc. […] Secretory Cl current is mediated by apical CFTR. This Cl secretory Isc is sensitive to bumetanide, applied to the basolateral side of the epithelium. There, bumetanide inhibits Cl entry from blood into the cell; thus, in the presence of bumetanide, the secretory Cl current is eliminated. Absorptive Na current is mediated by apically located epithelial Na channel (ENaC). This latter current is particularly high in this weanling age and is sensitive to amiloride, when it is applied luminally.

[4] = tested on: Cl^− secretion induced by forskolin; conditions: rat distal colon; cited from earlier work
[5] = tested on: CFTR-mediated and non CFTR-mediated HCO3^− secretion; assay: Isc and pH stat HCO3^− secretion with/without lumen Cl^−, CFTR inhibitors or DIDS (FIGS. 5, 6); conditions: R568 response
Description: FIG. 3. Experimental approach 1: The Ussing chamber pH-stat set up used to monitor and measure HCO3^- secretion by colonic mucosa. FIG. 4. Experimental Approach 2: Measurement of HCO3^- secretion by colonic mucosa in the presence of apical NPPB/Glibenclamide. FIGS. 5A-5F. Activation of CaSR by […] inhibits CFTR-mediated HCO3^- secretion (JHCO3) and ISC but stimulates non CFTR-mediated HCO3^- secretion (JHCO3) and Isc. Physiological approach assayed with, versus without, lumen Cl^-. FIGS. 6A-6F. Activation of CaSR by […] inhibits CFTR-mediated HCO3^- secretion (JHCO3) and ISC but stimulates CFTR-independent HCO3^- secretion (JHCO3) and Isc. Pharmacological approach assayed with, and without, CFTR transporter inhibitors or AE inhibitor DIDS.

[6] = tested on: Cl^−/HCO3^− exchange; assay: Cl^−/HCO3^− exchange activity (Cl^−-dependent HCO3^− secretion); design: species or system rat; conditions: pretreatment, 100 μM, lumen side (data not shown)
Procedure: as §1, with “Experiments were performed under short-circuit conditions (Voltage-Current Clamp, VCC MC8; Physiologic Instruments, San Diego, Calif.) to maintain the transepithelial potentials at 0 mV, except for brief interruption at 20-second intervals for recording of open-circuit potential (VT, mV).” left out
as §2, with “law. […]” for “law.”

O=C(CNc1ccc2ccccc2c1)N/N=C/c1cc(Br)c(O)c(Br)c1O [GlyH-101]
effect of pretreatment on forskolin stimulatory and R568 inhibitory effects on Isc [1]: abolished

COc1ccc(Cl)cc1C(=O)NCCc1ccc(S(=O)(=O)NC(=O)NC2CCCCC2)cc1 [glibenclamide]
effect of pretreatment on forskolin stimulatory and R568 inhibitory effects on Isc [1]: abolished

C[N+](C)(C)CCOC(N)=O [Carbachol]
lumen pH response ([2]; 100 μM, serosa, positive control): initial transient increase followed by a sustained increase in lumen pH

[Ca+2] [Ca^2+]
basal Isc ([2]; 0.5 mM [Ca^2+]o): 1.44±0.32 μEq/hr/cm^2 | basal Isc ([2]; 1.2 mM [Ca^2+]o): 1.10±0.10 μEq/hr/cm^2 | lumen alkalinization rate ([2]; [Ca^2+]o = 0.5 mM): 0.013±0.002 pH unit/min/cm^2 | lumen alkalinization rate ([2]; [Ca^2+]o = 1.2 mM): 0.031±0.002 pH unit/min/cm^2 | amiloride-sensitive ENaC-mediated basal Isc [3]: suppressed

CCCCNc1cc(C(=O)O)cc(S(N)(=O)=O)c1Oc1ccccc1 [Bumetanide]
inhibition of forskolin-induced Cl^− secretion [4]: ~70%

O=S(=O)(O)c1cc(N=C=S)ccc1C=Cc1ccc(N=C=S)cc1S(=O)(=O)O [DIDS, 4,4′-diisothiocyano-2,2′-stilbenedisulfonic acid]
AE-associated current ([5]; FIG. 6C vs. 6A): partially inhibited | CFTR activity (current) ([5]; FIG. 6C vs. 6A): inhibited | HCO3^− secretion rate ([5]; FIG. 6F with 6D): stimulated or did not change | luminal Cl^−-dependent HCO3^− secretory mechanism [6]: partially abolished

O=C(O)c1cc([N+](=O)[O-])ccc1NCCCc1ccccc1 [NPPB, 5-nitro-2-(3-phenylpropylamino)benzoic acid]
effect of pretreatment on forskolin stimulatory and R568 inhibitory effects on Isc [1]: abolished
